Active and inactive are the calls of the source. No cut-off for these calls is given here.
Tests used:
Rattus norvegicus [1] = experiment: Antagonistic activity against fenfluramine induced hyperthermia in rat after peroral administration; format: functional; settings: po, read-out: ID50 (the source's name)
Mus musculus [2] = experiment: Antagonistic activity test against 5-Hydroxytryptamine-induced head shake in mouse after intraperitoneal administration; format: functional; settings: ip, read-out: ID50 (the source's name)
Rattus norvegicus [3] = experiment: compound was tested for antagonistic activity against fenfluramine induced hyperthermia in rat after peroral administration at 50 mg/kg; NA denotes not active.; format: functional, organism-based; parameters: dose 50 mg/kg
Mus musculus [4] = experiment: compound was tested for antagonistic activity against 5-Hydroxytryptamine-induced head shake in mouse after intraperitoneal administration; NA denotes not active.; format: functional, organism-based
Mus musculus [5] = species: Mus musculus; experiment: compound was tested for antagonistic activity against 5-Hydroxytryptamine-induced head shake in mouse; format: functional; settings: read-out: ID50 (the source's name)
Rattus norvegicus [6] = experiment: compound was tested for antagonistic activity against fenfluramine induced hyperthermia in rat after peroral administration; Value ranges from 0.1-1.3; format: functional; settings: po, read-out: ID50 (the source's name)
Mus musculus [7] = experiment: compound was tested for antagonistic activity against 5-Hydroxytryptamine-induced head shake in mouse after intraperitoneal administration; Value ranges from 0.35-0.77; format: functional; settings: ip, read-out: ID50 (the source's name)
Rattus norvegicus [8] = experiment: compound was tested for antagonistic activity against fenfluramine induced hyperthermia in rat after peroral administration at a dose of 50 mg/kg; NA denotes not active.; format: functional, organism-based; parameters: dose 50 mg/kg
Rattus norvegicus [9] = experiment: compound was tested for antagonistic activity against fenfluramine induced hyperthermia in rat after peroral administration at 50 mg/kg; format: functional, organism-based; parameters: dose 50 mg/kg
Mus musculus [10] = experiment: compound was tested for antagonistic activity against 5-Hydroxytryptamine-induced head shake in mouse after intraperitoneal administration; NA denotes not active at a dose of 50 mg/kg.; format: functional, organism-based; parameters: dose 50 mg/kg
Rattus norvegicus [11] = species: Rattus norvegicus; experiment: compound was tested for antagonistic activity against fenfluramine induced hyperthermia in rat; format: functional; settings: read-out: ID50 (the source's name)
Rattus norvegicus [12] = experiment: compound was tested for antagonistic activity against fenfluramine induced hyperthermia in rat after peroral administration; Value ranges from 0.3-4.3; format: functional; settings: po, read-out: ID50 (the source's name)
Mus musculus [13] = experiment: compound was tested for antagonistic activity against 5-Hydroxytryptamine-induced head shake in mouse after intraperitoneal administration; Value ranges from 1.0-2.5; format: functional; settings: ip, read-out: ID50 (the source's name)
Rattus norvegicus [14] = experiment: compound was tested for antagonistic activity against fenfluramine induced hyperthermia in rat after peroral administration; NA denotes not active at a dose of 50 mg/kg.; format: functional, organism-based; parameters: dose 50 mg/kg
Mus musculus [15] = experiment: compound was tested for antagonistic activity against 5-Hydroxytryptamine-induced head shake in mouse after intraperitoneal administration; Value ranges from 0.02-0.9; format: functional; settings: ip, read-out: ID50 (the source's name)
Rattus norvegicus [16] = experiment: compound was tested for antagonistic activity against fenfluramine induced hyperthermia in rat after peroral administration 0.02-0.3; format: functional; settings: po, read-out: ID50 (the source's name)

SMILES	ED50 (Rattus norvegicus [1]) [mg/kg]	ED50 (Mus musculus [2]) [mg/kg]	also measured
CN(C)CCSc1nc2ccccc2cc1-c1ccc(Br)cc1.Cl	50	19.1	
CN(C)CCSc1nc2ccccc2c(C(N)=O)c1-c1ccccc1			ID50 (Rattus norvegicus [3]): inactive; ID50 (Mus musculus [4]): inactive
COc1cccc(-c2cc3ccccc3nc2SCCN(C)C)c1.Cl	5.1	25	
Cc1c(-c2ccsc2)c(SCCN(C)C)nc2ccccc12.O=C(O)C(=O)O	50	3.1	
CN(C)CCSc1nc2ccccc2cc1-c1ccccn1.O=C(O)C(=O)O	50	3.4	
Cc1c(-c2ccc(F)cc2)c(SCCN(C)C)nc2ccccc12.O=C(O)C(=O)O	11.1	50	
CCCc1cc2ccccc2nc1SCCN(C)C.O=C(O)C(=O)O			ED50 (Mus musculus [5]): 5 mg/kg; ID50 (Rattus norvegicus [3]): inactive
CC[C@@H](CO)NC(=O)[C@@H]1C=C2c3cccc4c3c(cn4C)C[C@H]2N(C)C1 [METHYSERGIDE]			ED50 (Rattus norvegicus [6]): 0.4 mg/kg; ED50 (Mus musculus [7]): 0.52 mg/kg
COc1ccccc1-c1c(SCCN(C)C)nc2ccccc2c1C.O=C(O)C(=O)O	50	50	
COc1c(-c2ccccc2C)c(SCCN(C)C)nc2ccccc12.Cl	7.2	50	
COc1ccccc1-c1cc2cc(C)ccc2nc1SCCN(C)C.O=C(O)C(=O)O	50	50	
Cc1ccc2cc(-c3ccccc3)c(SCCN(C)C)nc2c1.O=C(O)C(=O)O	50	50	
CN(C)CCSc1nc2ccccc2cc1C(C)(C)C.O=C(O)C(=O)O		50	ID50 (Rattus norvegicus [3]): inactive
CCCOc1ccc(-c2cc3ccccc3nc2SCCN(C)C)cc1.Cl	5.3	0.5	
CCCOc1ccc2cc(-c3ccccc3)c(SCCN(C)C)nc2c1.O=C(O)C(=O)O	50	50	
Cc1c(-c2ccccc2)c(SCCN(C)C)nc2ccccc12.O=C(O)C(=O)O	50	6.2	
CN(C)CCSc1nc2ccccc2cc1-c1ccsc1.O=C(O)C(=O)O	7.9	3.4	
Cc1cccc2cc(-c3ccccc3)c(SCCN(C)C)nc12			ID50 (Rattus norvegicus [3]): inactive; ID50 (Mus musculus [4]): inactive
CN(C)CCSc1nc2ccccc2cc1C1CCCCC1.Cl	50	50	
Cc1cccc(-c2cc3ccccc3nc2SCCN(C)C)c1.Cl	5.9	1.7	
CN(C)CCSc1nc2ccccc2cc1-c1ccc(C#N)cc1.Cl	10.7	1.2	

SMILES	ED50 (Rattus norvegicus [1]) [mg/kg]	ED50 (Mus musculus [2]) [mg/kg]	also measured
CN(C)CCSc1nc2ccccc2cc1C1CCCC1.O=C(O)C(=O)O		50	ID50 (Rattus norvegicus [3]): inactive
CCC(C)c1cc2ccccc2nc1SCCN(C)C.O=C(O)C(=O)O (stereo not drawn)	50	1.5	
COc1ccc(-c2cc3ccccc3nc2SCCN(C)C)cc1.Cl	28	5.9	
COc1ccccc1-c1cc2ccccc2nc1SCCN(C)C.Cl	4.6	1.2	
CNCCSc1nc2ccccc2cc1-c1ccccc1.Cl	7	6.2	
CN(C)CCSc1nc2ccccc2cc1-c1ccccc1F.Cl	7.2	1.9	
CN(C)CCSc1nc2ccccc2cc1-c1ccc(C(F)(F)F)cc1.Cl		50	ID50 (Rattus norvegicus [8]): inactive
Cc1ncc(-c2cc3ccccc3nc2SCCN(C)C)s1.O=C(O)C(=O)O	6.9	4.9	
CN(C)CCSc1nc2ccccc2cc1-c1cccc(F)c1.Cl	4.6	2.5	
COc1ccc2nc(SCCN(C)C)c(-c3ccccc3)cc2c1.O=C(O)C(=O)O	8.3	50	
CSc1ccc2nc(SCCN(C)C)c(-c3ccccc3)cc2c1.O=C(O)C(=O)O	10.3	50	
CCCCc1cc2ccccc2nc1SCCN(C)C.Cl	50	2.3	
CCN(C)CCSc1nc2ccccc2cc1-c1ccccc1.O=C(O)C(=O)O		50	
COc1c(-c2ccsc2)c(SCCN(C)C)nc2ccccc12.O=C(O)C(=O)O		50	ID50 (Rattus norvegicus [3]): inactive
Cc1cc2ccccc2nc1SCCN(C)C			ID50 (Rattus norvegicus [9]): inactive; ID50 (Mus musculus [10]): inactive
Cc1ccccc1-c1cc2ccccc2nc1SCCN(C)C.Cl	50	3	
CSc1ccc(-c2cc3ccccc3nc2SCCN(C)C)cc1.Cl		10	ED50 (Rattus norvegicus [11]): 7.8 mg/kg
Cc1ccc(-c2cc3ccccc3nc2SCCN(C)C)cc1.Cl	4.2	1.9	
CN(C)CCSc1nc2ccccc2cc1C1CC1.O=C(O)C(=O)O	25	3.4	
CN(C)CCSc1nc2ccccc2cc1-c1ccc(O)cc1.Cl	50	7.9	
CSc1ccc2cc(-c3ccccc3)c(SCCN(C)C)nc2c1	50		ID50 (Mus musculus [4]): inactive

SMILES	ED50 (Rattus norvegicus [1]) [mg/kg]	ED50 (Mus musculus [2]) [mg/kg]	also measured
CN(C)CCSc1nc2ccccc2cc1-c1ccccc1.Cl			ED50 (Rattus norvegicus [12]): 1.2 mg/kg; ED50 (Mus musculus [13]): 1.6 mg/kg
CN(C)CCSc1nc2ccccc2cc1-c1cccs1.O=C(O)C(=O)O	6.9	4.9	
CN(C)CCSc1nc2ccc(Br)cc2cc1-c1ccccc1.O=C(O)C(=O)O	6.7	50	
Cc1c(C(C)C)c(SCCN(C)C)nc2ccccc12.O=C(O)C(=O)O		50	ID50 (Rattus norvegicus [3]): inactive
COc1ccc(OC)c(-c2cc3ccccc3nc2SCCN(C)C)c1.Cl	4.2	3	
CN(C)CCSc1nc2ccccc2cc1-c1ccc(Cl)cc1.Cl		9.1	ID50 (Rattus norvegicus [14]): inactive
CN(C)CCSc1nc2ccccc2cc1Cc1ccccc1.Cl		50	ID50 (Rattus norvegicus [3]): inactive
CN(C)CCSc1nc2cc(N(C)C)ccc2cc1-c1ccccc1.O=C(O)C(=O)O	50		ID50 (Mus musculus [4]): inactive
CN(C)CCSc1nc2ccccc2cc1-c1ccc(F)cc1.Cl	2.9	1.7	
CN(C)CCSc1nc2ccc(Cl)cc2cc1-c1ccccc1.O=C(O)C(=O)O	50	50	
COc1c(-c2ccccc2)c(SCCN(C)C)nc2ccccc12.O=C(O)C(=O)O	5.5	3.5	
CCc1cc2ccccc2nc1SCCN(C)C.Cl	50	50	
COc1c(-c2ccc(F)cc2)c(SCCN(C)C)nc2ccccc12.O=C(O)C(=O)O	3.3	50	
CCN(CC)CCSc1nc2ccccc2cc1-c1ccccc1.Cl	50	25	
CC(c1ccccc1)c1cc2ccccc2nc1SCCN(C)C.O=C(O)C(=O)O (stereo not drawn)		50	ID50 (Rattus norvegicus [3]): inactive
COc1ccc2cc(-c3ccccc3)c(SCCN(C)C)nc2c1.Cl	3.1	50	
CN(C)CCSc1nc2ccccc2cc1-c1ccccc1Cl.Cl	9.9	50	
Cl.NCCSc1nc2ccccc2cc1-c1ccccc1	4.8	50	
O=C(c1ccc(F)cc1)C1CCN(CCn2c(=O)[nH]c3ccccc3c2=O)CC1 [KETANSERIN]			ED50 (Mus musculus [15]): 0.5 mg/kg; ED50 (Rattus norvegicus [16]): 0.1 mg/kg
CC(C)c1cc2ccccc2nc1SCCN(C)C.Cl	2.7	2.6	

Reference: ChEMBL document CHEMBL1123565, “Synthesis and 5-hydroxytryptamine antagonist activity of 2-[[2-(dimethylamino)ethyl]thio]-3-phenylquinoline and its analogues” (J Med Chem, 1987)
